Experimental data taken from patent US20080311126A1, “Antisense Oligonucleotides Directed to Ribonucleotide Reducatase R2 and Uses Thereof in Combination Therapies for the Treatment of Cancer” (Genesense Technologies, Inc, priority 2004, published 2008).
Oligonucleotides are written 5' to 3', each unit as a sugar letter and its base; * is a phosphorothioate linkage, no mark a phosphodiester; rarer units and linkages stand in square brackets, end groups in braces. Plain capitals give the bases only. d = 2'-deoxy (DNA)

Legend:
Experiment in all cases: Relative colony forming efficiency (Example 17, Table 13)
Format in all cases: cell-based, human
[1] = system: HepG2 hepatocellular carcinoma; conditions: averages of 2-8 determinations
Method: (§1) Colony forming efficiency was determined using standard protocols. […] The test oligonucleotides were added to cell cultures in the presence of 2.5 μg of DOTMA/DOPE (Lipofectin; Life Technologies, Inc.) for four hours. The oligonucleotide was tested at 0.2 μM unless otherwise indicated. Controls were the cultures treated with lipofectin but without the oligonucleotide. […] Surviving cells were visualized by methylene blue staining, and colonies were scored. In some experiments cell aliquots were removed from the culture and viability was determined using the trypan blue exclusion test. Results were analyzed as percent of surviving cells compared to control cells. To test the antisense effects of many of these sequences as phosphorthioate deoxyribonucleotides, they were examined in relative colony forming experiments conducted as described in Example 16 with a series of human tumour cell lines. The results (shown as % inhibition of colony forming ability) obtained with cancer cells derived from the bladder, breast, lung, colon, pancreas, prostate, liver and cervix, are shown in Table 13. The specific cell lines employed are as follows: […]

[2] = system: MDA PaCa-2 pancreatic cell carcinoma; conditions: MIA PaCa-2 pancreatic cell carcinoma; averages of 2-8 determinations
Method: as §1

[3] = system: A549 lung cell carcinoma; conditions: averages of 2-8 determinations
Method: as §1

[4] = system: HCT116 colon cell carcinoma; conditions: averages of 2-8 determinations
Method: as §1

[5] = system: PC-3 prostrate cell adenocarcinoma; conditions: averages of 2-8 determinations
Method: as §1

[6] = system: T24 bladder cell carcinoma; conditions: averages of 2-8 determinations
Method: as §1

Substance: AAGCGGCGGGGGTTTTCTCT (antisense dA*dA*dG*dC*dG*dG*dC*dG*dG*dG*dG*dG*dT*dT*dT*dT*dC*dT*dC*dT) [AS-II-414-20]
- Reduced relative colony forming efficiency, HepG2 (% inhibition of colony forming ability) [1]: 30.89%
- Reduced relative colony forming efficiency, MIA PaCa-2 (% inhibition of colony forming ability) [2]: 36.11%
- Reduced relative colony forming efficiency, A549 (% inhibition of colony forming ability) [3]: 12.44%
- Reduced relative colony forming efficiency, HCT116 (% inhibition of colony forming ability) [4]: 19.1%
- Reduced relative colony forming efficiency, PC-3 (% inhibition of colony forming ability) [5]: 60.94%
- Reduced relative colony forming efficiency, T24 (% inhibition of colony forming ability) [6]: 11.67%

Substance: ACTGCCATTGTCACTGCTAT (antisense dA*dC*dT*dG*dC*dC*dA*dT*dT*dG*dT*dC*dA*dC*dT*dG*dC*dT*dA*dT) [AS-II-1581-20]
- Reduced relative colony forming efficiency, HepG2 (% inhibition of colony forming ability) [1]: 93.07%
- Reduced relative colony forming efficiency, MIA PaCa-2 (% inhibition of colony forming ability) [2]: 24.07%
- Reduced relative colony forming efficiency, A549 (% inhibition of colony forming ability) [3]: 90.55%
- Reduced relative colony forming efficiency, HCT116 (% inhibition of colony forming ability) [4]: 66.85%
- Reduced relative colony forming efficiency, PC-3 (% inhibition of colony forming ability) [5]: 85.83%
- Reduced relative colony forming efficiency, T24 (% inhibition of colony forming ability) [6]: 68.22%

Substance: AGCCTCTGCCTTCTTATACA (antisense dA*dG*dC*dC*dT*dC*dT*dG*dC*dC*dT*dT*dC*dT*dT*dA*dT*dA*dC*dA) [AS-II-472-20]
- Reduced relative colony forming efficiency, MIA PaCa-2 (% inhibition of colony forming ability) [2]: 97.13%
- Reduced relative colony forming efficiency, A549 (% inhibition of colony forming ability) [3]: 96.99%
- Reduced relative colony forming efficiency, HCT116 (% inhibition of colony forming ability) [4]: 67.23%
- Reduced relative colony forming efficiency, PC-3 (% inhibition of colony forming ability) [5]: 90.7%
- Reduced relative colony forming efficiency, T24 (% inhibition of colony forming ability) [6]: 69.26%

Substance: AGCTGCTGCGGGTCCGTGAT (antisense dA*dG*dC*dT*dG*dC*dT*dG*dC*dG*dG*dG*dT*dC*dC*dG*dT*dG*dA*dT) [AS-II-225-20]
- Reduced relative colony forming efficiency, MIA PaCa-2 (% inhibition of colony forming ability) [2]: 95.44%
- Reduced relative colony forming efficiency, HCT116 (% inhibition of colony forming ability) [4]: 59.5%
- Reduced relative colony forming efficiency, PC-3 (% inhibition of colony forming ability) [5]: 30.06%
- Reduced relative colony forming efficiency, T24 (% inhibition of colony forming ability) [6]: 73.23%

Substance: AS-II-134220 (antisense dG*dA*dA*dG*dT*dC*dA*dG*dC*dA*dT*dC*dC*dA*dA*dG*dG*dT*dA*dA)
- Reduced relative colony forming efficiency, HepG2 (% inhibition of colony forming ability) [1]: 82.2%
- Reduced relative colony forming efficiency, MIA PaCa-2 (% inhibition of colony forming ability) [2]: 73.77%
- Reduced relative colony forming efficiency, A549 (% inhibition of colony forming ability) [3]: 65.67%
- Reduced relative colony forming efficiency, HCT116 (% inhibition of colony forming ability) [4]: 73.74%
- Reduced relative colony forming efficiency, PC-3 (% inhibition of colony forming ability) [5]: 89.84%
- Reduced relative colony forming efficiency, T24 (% inhibition of colony forming ability) [6]: 59.76%

Substance: ATCCAGCGCAAGGCCCAGTC (antisense dA*dT*dC*dC*dA*dG*dC*dG*dC*dA*dA*dG*dG*dC*dC*dC*dA*dG*dT*dC) [AS-II-816-20]
- Reduced relative colony forming efficiency, HepG2 (% inhibition of colony forming ability) [1]: 93.08%
- Reduced relative colony forming efficiency, MIA PaCa-2 (% inhibition of colony forming ability) [2]: 93.21%
- Reduced relative colony forming efficiency, A549 (% inhibition of colony forming ability) [3]: 78.4%
- Reduced relative colony forming efficiency, HCT116 (% inhibition of colony forming ability) [4]: 88.22%
- Reduced relative colony forming efficiency, PC-3 (% inhibition of colony forming ability) [5]: 94.08%
- Reduced relative colony forming efficiency, T24 (% inhibition of colony forming ability) [6]: 73.91%

Substance: ATGGTACTCGATGGGGAAGA (chemistry not given here) [AS-II-439-20]
- Reduced relative colony forming efficiency, HepG2 (% inhibition of colony forming ability) [1]: 73.04%
- Reduced relative colony forming efficiency, MIA PaCa-2 (% inhibition of colony forming ability) [2]: 92.69%
- Reduced relative colony forming efficiency, A549 (% inhibition of colony forming ability) [3]: 76.46%
- Reduced relative colony forming efficiency, HCT116 (% inhibition of colony forming ability) [4]: 64.7%
- Reduced relative colony forming efficiency, PC-3 (% inhibition of colony forming ability) [5]: 77.66%
- Reduced relative colony forming efficiency, T24 (% inhibition of colony forming ability) [6]: 67.84%

Substance: CAAATGGGTTCTCTACTCTG (antisense dC*dA*dA*dA*dT*dG*dG*dG*dT*dT*dC*dT*dC*dT*dA*dC*dT*dC*dT*dG) [AS-II-1217-20]
- Reduced relative colony forming efficiency, MIA PaCa-2 (% inhibition of colony forming ability) [2]: 34.85%
- Reduced relative colony forming efficiency, A549 (% inhibition of colony forming ability) [3]: 91.49%
- Reduced relative colony forming efficiency, HCT116 (% inhibition of colony forming ability) [4]: 68.68%
- Reduced relative colony forming efficiency, PC-3 (% inhibition of colony forming ability) [5]: 81.03%
- Reduced relative colony forming efficiency, T24 (% inhibition of colony forming ability) [6]: 66.36%

Substance: CCAGCACTATAAACAGACAG (antisense dC*dC*dA*dG*dC*dA*dC*dT*dA*dT*dA*dA*dA*dC*dA*dG*dA*dC*dA*dG) [AS-II-1517-20]
- Reduced relative colony forming efficiency, PC-3 (% inhibition of colony forming ability) [5]: 91.75%

Substance: CCGTGGGCTCCTGGAAGATC (antisense dC*dC*dG*dT*dG*dG*dG*dC*dT*dC*dC*dT*dG*dG*dA*dA*dG*dA*dT*dC) [AS-II-344-20]
- Reduced relative colony forming efficiency, PC-3 (% inhibition of colony forming ability) [5]: 80.06%

Substance: CGGCTCATCCTCCACGC (antisense dC*dG*dG*dC*dT*dC*dA*dT*dC*dC*dT*dC*dC*dA*dC*dG*dC) [AS-II-391-17]
- Reduced relative colony forming efficiency, HepG2 (% inhibition of colony forming ability) [1]: 60.64%
- Reduced relative colony forming efficiency, MIA PaCa-2 (% inhibition of colony forming ability) [2]: 26.35%
- Reduced relative colony forming efficiency, PC-3 (% inhibition of colony forming ability) [5]: 93.25%

Substance: GAAGCCATAGAAACAGCGGG (antisense dG*dA*dA*dG*dC*dC*dA*dT*dA*dG*dA*dA*dA*dC*dA*dG*dC*dG*dG*dG) [AS-II-667-20]
- Reduced relative colony forming efficiency, HepG2 (% inhibition of colony forming ability) [1]: 88.23%
- Reduced relative colony forming efficiency, MIA PaCa-2 (% inhibition of colony forming ability) [2]: 85.26%
- Reduced relative colony forming efficiency, A549 (% inhibition of colony forming ability) [3]: 70.3%
- Reduced relative colony forming efficiency, PC-3 (% inhibition of colony forming ability) [5]: 91.8%
- Reduced relative colony forming efficiency, T24 (% inhibition of colony forming ability) [6]: 70.48%

Substance: GACGGCTGGGACAGGGTGCA (antisense dG*dA*dC*dG*dG*dC*dT*dG*dG*dG*dA*dC*dA*dG*dG*dG*dT*dG*dC*dA) [AS-II-134-20]
- Reduced relative colony forming efficiency, PC-3 (% inhibition of colony forming ability) [5]: 77.51%

Substance: GCATCCAAGGTAAAAGAATT (antisense dG*dC*dA*dT*dC*dC*dA*dA*dG*dG*dT*dA*dA*dA*dA*dG*dA*dA*dT*dT) [AS-II-1335-20]
- Reduced relative colony forming efficiency, HepG2 (% inhibition of colony forming ability) [1]: 72.98%
- Reduced relative colony forming efficiency, MIA PaCa-2 (% inhibition of colony forming ability) [2]: 78.78%
- Reduced relative colony forming efficiency, A549 (% inhibition of colony forming ability) [3]: 78.59%
- Reduced relative colony forming efficiency, HCT116 (% inhibition of colony forming ability) [4]: 67.87%
- Reduced relative colony forming efficiency, PC-3 (% inhibition of colony forming ability) [5]: 90.04%
- Reduced relative colony forming efficiency, T24 (% inhibition of colony forming ability) [6]: 59.95%

Substance: GCGGCGGGGGTTTTCTCTCA (antisense dG*dC*dG*dG*dC*dG*dG*dG*dG*dG*dT*dT*dT*dT*dC*dT*dC*dT*dC*dA) [AS-II-412-20]
- Reduced relative colony forming efficiency, HepG2 (% inhibition of colony forming ability) [1]: 26.23%
- Reduced relative colony forming efficiency, MIA PaCa-2 (% inhibition of colony forming ability) [2]: 55.25%
- Reduced relative colony forming efficiency, A549 (% inhibition of colony forming ability) [3]: 43.78%
- Reduced relative colony forming efficiency, HCT116 (% inhibition of colony forming ability) [4]: 27.98%
- Reduced relative colony forming efficiency, PC-3 (% inhibition of colony forming ability) [5]: 73.96%
- Reduced relative colony forming efficiency, T24 (% inhibition of colony forming ability) [6]: 22.2%

Substance: TCCTCGCGGTCTTGCTGGCC (antisense dT*dC*dC*dT*dC*dG*dC*dG*dG*dT*dC*dT*dT*dG*dC*dT*dG*dG*dC*dC) [AS-II-323-20]
- Reduced relative colony forming efficiency, HepG2 (% inhibition of colony forming ability) [1]: 96.39%
- Reduced relative colony forming efficiency, MIA PaCa-2 (% inhibition of colony forming ability) [2]: 97.55%
- Reduced relative colony forming efficiency, A549 (% inhibition of colony forming ability) [3]: 91.24%
- Reduced relative colony forming efficiency, HCT116 (% inhibition of colony forming ability) [4]: 55.8%
- Reduced relative colony forming efficiency, PC-3 (% inhibition of colony forming ability) [5]: 79.76%

Substance: TGGGACAGGGTGCACGGGCG (antisense dT*dG*dG*dG*dA*dC*dA*dG*dG*dG*dT*dG*dC*dA*dC*dG*dG*dG*dC*dG) [AS-II-130-20]
- Reduced relative colony forming efficiency, HepG2 (% inhibition of colony forming ability) [1]: 94.28%
- Reduced relative colony forming efficiency, MIA PaCa-2 (% inhibition of colony forming ability) [2]: 82.11%
- Reduced relative colony forming efficiency, A549 (% inhibition of colony forming ability) [3]: 86.48%
- Reduced relative colony forming efficiency, PC-3 (% inhibition of colony forming ability) [5]: 74.66%

Substance: TTGTGTACCAGGTGTTTGAA (antisense dT*dT*dG*dT*dG*dT*dA*dC*dC*dA*dG*dG*dT*dG*dT*dT*dT*dG*dA*dA) [AS-II-1023-20]
- Reduced relative colony forming efficiency, MIA PaCa-2 (% inhibition of colony forming ability) [2]: 42.82%
- Reduced relative colony forming efficiency, A549 (% inhibition of colony forming ability) [3]: 34.52%
- Reduced relative colony forming efficiency, PC-3 (% inhibition of colony forming ability) [5]: 87.63%
- Reduced relative colony forming efficiency, T24 (% inhibition of colony forming ability) [6]: 58.26%
